≈ marks a conversion by molar mass, not a printed value. Where “and” joins values, the source holds several entries; their conditions need not be identical. Equal values may be shown once. Entries after “also recorded” stand apart in the source; their conditions may differ. Read-outs that look alike come from different tables or passages of the source.
Tests used:
[1] = Overnight incubation of thiourea in water at room temperature without papaya seed; assay type: physicochemical; details: 10 μM in water
rat sEH [2] = biological target: T1, rat sEH (Rattus norvegicus, UniProt P80299); test: sEH inhibition by fluorescent assay (CMNPC assay), rat enzyme; assay type: biochemical; details: for IC50: CMNPC substrate, recombinant enzyme
T1 construct: made in house; host or cells: insect High Five cells (recombinant baculovirus)
T1 sequence (P80299 1-554): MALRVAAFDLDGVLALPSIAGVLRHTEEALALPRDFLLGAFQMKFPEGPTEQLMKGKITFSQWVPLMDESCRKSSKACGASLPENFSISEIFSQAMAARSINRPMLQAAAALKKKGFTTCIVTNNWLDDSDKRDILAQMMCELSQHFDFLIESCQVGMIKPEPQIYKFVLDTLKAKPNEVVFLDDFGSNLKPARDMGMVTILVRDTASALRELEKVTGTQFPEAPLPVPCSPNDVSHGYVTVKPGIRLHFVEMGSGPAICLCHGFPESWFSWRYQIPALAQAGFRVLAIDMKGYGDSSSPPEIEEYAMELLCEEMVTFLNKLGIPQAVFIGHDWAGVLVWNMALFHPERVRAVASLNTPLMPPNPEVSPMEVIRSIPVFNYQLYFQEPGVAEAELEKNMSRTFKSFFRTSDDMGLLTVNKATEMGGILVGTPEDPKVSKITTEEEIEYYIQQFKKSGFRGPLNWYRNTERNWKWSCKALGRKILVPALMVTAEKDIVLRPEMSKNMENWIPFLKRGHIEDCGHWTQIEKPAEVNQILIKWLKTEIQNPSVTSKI
Procedure: (§1) Recombinant sEH was produced in insect High Five cells using recombinant baculovirus expression vectors, and purified by affinity chromatography as reported previously. The enzyme appeared as a single band (0.3 μg loading) with an estimated purity of more than 95% by Coomassie Brilliant Blue staining following SDS-PAGE separation. The final recombinant sEH preparations had no esterase or glutathione S-transferase activities, which interfere with the CMNPC assay as described below.
(§2) IC50 values were determined as described previously using cyano (2-methoxynaphthalen-6-yl) methyl trans-(3-phenyl-oxyran-2-yl) methyl carbonate (CMNPC) as a fluorescent substrate. Recombinant sEH (0.96 nM) was incubated with inhibitors for 5 min in 25 mM bis-Tris/HCl buffer (pH 7.0) containing 0.1 mg/mL of BSA at 30°C prior to substrate introduction ([S] = 5 μM). Activity was measured by determining the appearance of the 6-methoxy-2-naphthaldehyde with an excitation wavelength of 330 nm and an emission wavelength of 465 nm for 10 min.

human sEH = biological target: T2, human sEH (Homo sapiens, UniProt P34913); test: sEH inhibition by fluorescent assay (CMNPC assay), human enzyme; assay type: biochemical
T2 construct: made in house; host or cells: insect High Five cells (recombinant baculovirus)
T2 sequence (P34913 1-555): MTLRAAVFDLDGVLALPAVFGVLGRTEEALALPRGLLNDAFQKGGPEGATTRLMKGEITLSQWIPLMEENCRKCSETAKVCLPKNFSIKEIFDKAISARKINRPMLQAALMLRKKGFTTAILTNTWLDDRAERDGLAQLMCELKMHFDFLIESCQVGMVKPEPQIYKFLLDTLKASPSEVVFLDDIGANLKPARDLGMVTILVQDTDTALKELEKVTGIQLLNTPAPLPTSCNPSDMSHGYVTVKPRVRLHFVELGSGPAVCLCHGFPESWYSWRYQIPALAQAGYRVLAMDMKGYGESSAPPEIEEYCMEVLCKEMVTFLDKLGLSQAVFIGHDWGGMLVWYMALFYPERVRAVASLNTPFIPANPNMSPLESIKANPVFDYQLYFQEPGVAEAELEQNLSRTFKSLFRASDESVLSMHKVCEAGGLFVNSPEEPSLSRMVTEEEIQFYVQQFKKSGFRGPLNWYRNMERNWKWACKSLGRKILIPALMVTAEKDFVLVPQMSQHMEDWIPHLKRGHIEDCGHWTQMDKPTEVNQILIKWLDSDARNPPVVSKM
Procedure: as §1, §2

[3] = test system: carrageenan-induced inflammatory pain; test: Carrageenan-induced inflammatory pain model, intraplantar administration; assay type: in vivo; details: rat, 10 µg/paw, p<0.05 vs. vehicle
Procedure: S8 Fig. Intraplantar administration of compound 3 effectively reduces carrageenan-induced inflammatory pain in rat. Administration of the inflammatory agent carrageenan (CAR) induces a stable hyperalgesic response for the duration of the experiment. Treatment with 3 (▲, 10 µg/paw, intraplantar), morphine (●, 10 µg/paw, intraplantar) or the potent synthetic sEH inhibitor (1-(1-(Cyclopropanecarbonyl) piperidin-4-yl)-3-(4- […]
pain levels (Kruskal-Wallis One Way ANOVA on Ranks, p≤0.001, Tukey’s post hoc test (compound 3 vs. vehicle, morphine vs. vehicle, TPCU vs. vehicle, p<0.05). Mean ± SE (n=6) of mechanical withdrawal threshold (% of naïve baseline) are shown. Vehicle (○), morphine (●), and TPCU (△) treatment data are from Rose et al., (2010).
(1 picture or pasted object on this page, not shown here)

Solubility = assay type: physicochemical
[4] = Pharmacokinetics after oral gavage (cassette dosing); assay type: in vivo; details: mice; for oral availability, comparison: gavage, compound 3 and AEPU 10 mg/kg, TPPU 0.3 mg/kg; for blood level of demethoxy metabolite after oral compound 3: compound 3 10 mg/kg oral, LOQ < 9.8 nM in blood
Procedure: (§3) Pharmacokinetic profiles of the inhibitors were determined by following the procedure described previously in literature with some modifications. Male Swiss Webster mice (7 weeks old, 24–30 g) were purchased from Charles River Laboratories. Inhibitors were dissolved in polyethylene glycol (average molecular weight: 300) to give a clear solution for oral administration. […] Blood (10 μL) was collected from the tail vein using a pipet tip rinsed with EDTA. The blood samples were prepared according to the methods detailed previously, and blood samples were analyzed by LC-MS/MS.

[5] = Blood concentration during the pain assay after dermal treatment; assay type: in vivo; details: rat; for Concentration of demethoxy metabolite: after dermal treatment of compound 3 (6 mg/paw)
Procedure: (§4) Male Sprague-Dawley rats weighing 225–250 g were obtained from Charles River Laboratories and maintained in the UC Davis animal housing facility with ad libitum water and food on a 12 h/12 h light-dark cycle. Behavioral nociceptive testing was conducted by assessing mechanical withdrawal threshold using an electronic von Frey anesthesiometer apparatus (IITC, Woodland Hills, CA) as described previously. The analgesic effect of compound 3 was tested using the intraplantar carrageenan-induced local inflammatory pain model. Following baseline measurements, carrageenan (50 μL, 1% solution of carrageenan in ddH2O) was administered into the plantar area of one hind paw. At 4 h post administration of carrageenan, responses were measured, and immediately after these measurement, 3 (3% in PEG400/Vanicream™ (Pharmaceutical Specialties, Inc. Rochester, MN) = 3:7, 6 mg of compound/paw), the synthetic sEH inhibitor triclocarban (TCC, 3%), or the vehicle (200 μL of PEG400/Vanicream™) was administered onto the inflamed paw by topical application. The cream was thoroughly massaged across the entire hind paw surface over a 1–2 min period. Subsequently, the ability of these treatments to reduce the carrageenan-induced inflammatory pain was monitored over the course of 4 h.
as §3

[6] = test system: carrageenan-induced inflammatory pain; test: Nociceptive assay, carrageenan-induced inflammatory pain model, topical application; assay type: in vivo; details: rat, 6 mg/paw in PEG400/Vanicream, monitored 4 h, p ≤ 0.001
Procedure: as §4
Data were analyzed using SigmaPlot 11.0 for Windows (Systat Software Inc., San Jose, CA). […]

[7] = value marked with footnote c, text of footnote not shown; cited from earlier work
rat sEH [8] = biological target: T1, rat sEH; design: method as in PMID 21381656; details: value marked with footnote e; cited from earlier work
[9] = test system: carrageenan-induced inflammatory pain; design: method as in Rose et al., (2010); details: rat, intraplantar, morphine 10 µg/paw, TPCU 10 ng/paw; ref Rose et al., (2010); cited from earlier work
[10] = CMNPC substrate, recombinant enzyme, read-out: Human sEH IC50
[11] = S2 Table, unit inferred, read-out: hsEH IC50

Compound: S=C(NCc1ccccc1)NCc1ccccc1 [1,3-dibenzylthiourea]
- converted into compound 1 [1]: Approximately 10%

Compound: COc1ccc(CNC(=O)NCc2ccccc2)cc1 [BMU, reference compound]
- IC50 (rat sEH [2]): 182 nM

Compound: O=C(NCc1ccccc1)NCc1ccccc1 [Compound 1, 1,3-Dibenzylurea]
- IC50 (rat sEH [2]): 385 nM

Compound: COc1cccc(CNC(=O)NCc2ccccc2)c1 [Compound 2, 1-Benzyl-3-(3-methoxybenzyl) urea]
- IC50 (rat sEH [2]): 308 nM
- lower potency on human sEH than compound 3 (human sEH): approximately 2 fold
- IC50 (human sEH; [10]): 534 nM

Compound: COc1cccc(CNC(=O)NCc2cccc(OC)c2)c1 [Compound 3, 1,3-Bis (3-methoxybenzyl) urea]
- carrageenan-induced inflammatory pain (mechanical withdrawal threshold) [3]: significantly reduced
- solubility higher than MMU (Solubility): approximately 10 fold
- absorption following oral administration ([4]; 10 mg/kg by gavage in PEG300): rapidly absorbed
- oral availability, comparison [4]: higher than that of AEPU
- portion of compound 3 metabolized into compound 6 ([4]; oral 10 mg/kg, based on area under the curve values): approximately 66%
- IC50 (rat sEH [2]): 155 nM
- concentration at 4 h ([5]; male, Sprague-Dawley, whole blood, topical, dermal 6 mg/paw, after 4 hours): > 3000 nM
- blood concentration at peak ([5]; dermal 6 mg/paw, at 30 min): higher than 40 μM
- permeability through skin ([5]; dermal 6 mg/paw, concluded from blood concentration): high permeability through skin
- carrageenan induced inflammatory pain (mechanical withdrawal threshold) [6]: significantly reduced carrageenan induced inflammatory pain; also recorded: significantly reduced pain levels
- IC50 (human sEH; [10]): 222 nM and ~200 nM
- less potent than MMU (human sEH; human sEH): approximately 2 fold

Compound: COc1cccc(CNC(=O)NCc2cccc(O)c2)c1 [Compound 6, 1-(3-Hydroxybenzyl)-3-(3-methoxybenzyl) urea]
- blood level of demethoxy metabolite after oral compound 3 [4]: detected at similar concentrations to compound 3
- IC50 (rat sEH [2]): 1300 nM
- Concentration of demethoxy metabolite [5]: below 200 nM
- IC50 (human sEH; read-out: human sEH IC50): 1300 nM

Compound: O=C(NCc1cccc(O)c1)NCc1cccc(O)c1 [Compound 7, 1,3-Bis(3-hydroxybenzyl)urea]
- blood level of demethoxy metabolite after oral compound 3 [4]: not detected
- IC50 (rat sEH [2]): 9600 nM
- Concentration of demethoxy metabolite [5]: below 200 nM
- IC50 (human sEH; [11]): 2700 nM

Compound: O=C(NCCc1ccccc1)NCCc1ccccc1 [Compound 8, 1,3-Diphenethylurea]
- solubility (Solubility): 33 ± 11 µM (≈ 8.86 µg/mL)
- IC50 (rat sEH [2]): 71 nM
- sEH inhibitory potency in words (human sEH): moderate sEH inhibitory potency
- IC50 (human sEH; [11]): 233 nM

Compound: S=C(NCCc1ccccc1)NCCc1ccccc1 [Compound 9, 1,3-Diphenethylthiourea]
- IC50 (rat sEH [2]): 3300 nM
- IC50 (human sEH; [10]): 2400 nM
- IC50 (human sEH; [11]): 134 nM

Compound: O=C(NCCc1ccccc1)NCCc1ccc(O)cc1 [Compound 10, 1-(4-Hydroxyphenethyl)-3-phenethylurea]
- IC50 (rat sEH [2]): 129 nM
- sEH inhibitory potency in words (human sEH): slightly higher inhibitory potency on sEH than the parent
- IC50 (human sEH; [10]): 134 nM
- IC50 (human sEH; [11]): 71.6 nM

Compound: COc1ccc(CNC(=O)NCc2ccc(OC)cc2)cc1 [MMU, reference compound]
- IC50 (rat sEH [2]): 218 nM
- solubility [7]: 11 ± 2 µM (≈ 3.3 µg/mL)

Compound: O=S(=O)(O)ON=C(CCc1ccccc1)SC1OC(CO)C(O)C(O)C1O (stereo not shown) [Phenethyl glucosinolate, reference compound]
- IC50 (rat sEH [2]): > 10000 nM
- IC50 (human sEH; [10]): > 10000 nM

Compound: S=C=NCCc1ccccc1 [Phenethyl isothiocyanate, reference compound]
- IC50 (rat sEH [2]): > 10000 nM
- IC50 (human sEH; [10]): > 10000 nM

Compound: O=C(Nc1ccc(Cl)cc1)Nc1ccc(Cl)c(Cl)c1 [TCC, triclocarban, reference compound]
- IC50 (rat sEH [8]): 27 nM
- more potent than compound 3 on rat sEH (rat sEH [2]): approximately 6 fold
- carrageenan induced inflammatory pain (mechanical withdrawal threshold) [6]: significantly reduced carrageenan induced inflammatory pain; also recorded: significantly reduced pain levels

Compound: O=C(Nc1ccc(OC(F)(F)F)cc1)NC1CCN(C(=O)C2CC2)CC1 [TPCU, 1-(1-(Cyclopropanecarbonyl)piperidin-4-yl)-3-(4-(trifluoromethoxy)phenyl) urea]
- carrageenan-induced inflammatory pain (mechanical withdrawal threshold) [9]: significantly reduced

Compound: CCC(=O)N1CCC(NC(=O)Nc2ccc(OC(F)(F)F)cc2)CC1 [TPPU, 1-trifluoromethoxyphenyl-3-(1-propionylpiperidin-4-yl) urea, reference compound]
- oral availability, comparison [4]: much higher bioavailability than compound 3

Compound: CN1CC[C@]23c4c5ccc(O)c4O[C@H]2[C@@H](O)C=C[C@H]3[C@H]1C5 [morphine]
- carrageenan-induced inflammatory pain (mechanical withdrawal threshold) [9]: significantly reduced

Reference: PMC5417501, “Occurrence of urea-based soluble epoxide hydrolase inhibitors from the plants in the order Brassicales” (PLoS ONE, 2017)
